Bounds are passed on as bounds.

`Clc1ccc2nc(CBr)c(CBr)nc2c1` had a melting point of 149 to 150 °C. The same measure for `C#CCNC(=O)c1ncn2c1CN(C)C(=O)c1cc(F)ccc1-2`: 205 to 206 °C; for `CCOc1nn(-c2ccc(C(F)(F)F)cn2)cc1CCCOc1cccc(CC(=O)O)c1`: 134 to 135 °C; for `CC(=O)c1c(O)ccc2[nH]ncc12`: 188 to 191 °C. The compound `Cc1c(N)c(C)c(C(C)C)c2c1CC(C)(CN1CCC(c3ccccc3)CC1)O2` (centres undefined) showed a melting point of 128 to 131 °C.

In the case of `CCCC(=O)c1cnc2c(OCCN(C)C)cccc2c1Nc1ccccc1C`, the melting point is 88 to 90 °C. In turn, `CC(C)Nc1nc(-c2nc[nH]n2)cc(Cl)c1-c1c(F)cccc1Cl` came in with a melting point of 152 °C. Consider `COCCN1CC(C(=O)OC)N(S(=O)(=O)c2ccc(OC)cc2)Cc2ccccc21` (centres undefined), for which the melting point lay in the range of 86 to 90 °C. Take `O=C(O)CCn1nc(-c2c(-c3ccccc3)nn3ccccc23)ccc1=O`: the melting point came to 156 °C. Next, `CN(C)CCC1CCCCN1C1c2ccccc2Oc2ccccc21` (centres undefined): 64 to 67 °C; `O=C(OCCN1CCOC1=O)c1ccccc1Nc1ccnc2cc(Cl)ccc12`: 122 to 124 °C; `COc1ccc(COc2ccc3[nH]c4c([N+](=O)[O-])ccc(Cl)c4c(=O)c3c2)cc1`: 187 to 189 °C. The same measure for `CC(=O)c1ccc(N=C(C)c2ccccc2)cc1`: 205 °C. Next, `COC(=O)C[C@@H]1C[C@@H](COc2ccc(-c3ccc(C(=N)NC(=O)OCc4ccccc4)cc3)cc2)NC1=O`: 160 to 164 °C; `COc1ccc(-c2oc3cc(C)c(C)cc3c2-c2ccc(OC)cc2)cc1`: 153 °C; `CN1C(=O)CC[C@]2(C)c3ccc(Sc4nc5ccccc5s4)cc3CC[C@@H]12`: 188 to 189 °C. Consider `OC(CNCc1ccccc1)c1cc(C(F)(F)F)nc2c(C(F)(F)F)cccc12` (centres undefined), for which the melting point fell in the range of 138 to 139 °C.

The compound `Sc1ccc(-c2ccc(-c3ccc(S)c(S)c3)cc2)cc1S` registered a melting point of 171 to 172 °C. The same measure for `NC(=O)c1cc2n(c1)CCc1ccccc1C2=O`: 228 °C; for `CNC(=O)COc1nc(N)nc(-c2ccccc2)c1-c1ccc(=O)n(C(C)C)n1`: 204 to 206 °C. Next, `Cc1ccc(C2CC(n3ccnc3)c3ccccc3N2)cc1` (centres undefined): 152 to 154 °C; `Cc1nc(N2CCN(CC3CC3)C2=O)sc1C(=O)NCc1cncc(F)c1`: 144 to 145 °C. The same measure for `CC1(C)CC2(NC(=O)NC2=O)c2cc(Cl)ccc2O1` (centres undefined): 281 to 283 °C; for `O=C1C(=O)c2ccccc2C2=C1SCC1(CCN(CC(O)COc3ccc4cc(Br)ccc4c3)CC1)O2` (centres undefined): 183 to 184 °C. In turn, `CC(C)C1=C(C#N)C(c2cccc(N3CCOCC3)c2)c2c[nH]nc2N1` (centres undefined) came in with a melting point of 254 to 257 °C. Compound `Clc1ccc(-c2csc(-c3cnccc3Cl)n2)cc1` had a melting point of 149 to 150 °C. `CC(C)C[C@@H](NS(=O)(=O)c1ccc(N2CCC(c3ccccc3)CC2)cc1)C(=O)O` came in with a melting point of 163 to 165 °C. The same measure for `O=C(c1ccc2[nH]ccc2c1)N1CCN(CCc2ccc([N+](=O)[O-])cc2)CC1`: 204 to 206 °C; for `Cc1cc(-c2cccnc2)n2ncnc2n1`: 183 to 185 °C; for `CCOC(=O)CCNC(=O)c1[nH]c(C)c(-c2nc3ccc(C(=O)c4ccccc4)cc3[nH]2)c1C`: 135 to 137 °C. The same measure for `CCCCc1nc2c(N)nc3ccc(OCc4ccccc4)cc3c2n1CCCCNS(C)(=O)=O`: 178 to 182 °C; for `OC(C1=NCCN1)(c1ccccc1)c1cccc(Cl)n1` (centres undefined): 154 to 156 °C. The same measure for `O=C(O)c1cnn(-c2cccc(Cl)c2)c1Cl`: 209 to 211 °C; for `N#CCCc1cc(C(=O)O)cc(S(N)(=O)=O)c1Oc1ccccc1`: 259 to 262 °C. On to `O=Cc1ccn(C2=CC3=C(CC2)CCc2[nH]c(=O)c(=O)[nH]c23)c1`, for which the melting point is more than 250 °C. `O=C1Nc2cccc(Cl)c2C(=O)N2C[C@H](O)C[C@@H]12` registered a melting point of 284 to 287 °C. In turn, `CS(=O)(=O)Nc1ccc(O)cn1` returned a melting point of 246 to 247 °C. Next, `O=Cc1ccc(-c2ccc(Cl)cc2)cc1`: 108 to 112 °C; `CCCc1c(OCCCCCCc2cc(C)c(O)c(O)c2C)ccc(C(=O)OCC)c1O`: 61 to 64 °C; `NS(=O)(=O)c1ccc(NN=C2C(=O)Nc3ccc(C(=O)NCCn4ccnc4)cc32)cc1`: more than 230 °C. Regarding `O=C(Cc1ccc(SC(F)(F)F)cc1)NCc1ccc2c(c1)CN(C1CCC(=O)NC1=O)C2=O` (centres undefined), the melting point fell in the range of 208 to 210 °C. Next, `CC1(C)C(=O)Nc2cc(O)c([N+](=O)[O-])cc21`: 244 to 247 °C; `N=C(NO)c1ccc(Cl)nc1`: 185 to 186 °C; `COc1ccc(C2=NC(NC(=O)CCc3ccc(Cl)cc3Cl)C(=O)N(C)c3ccccc32)cc1` (centres undefined): 188 to 189 °C. Next, `O=c1c2c[nH]c3ccc(F)cc3c-2nn1-c1ncccn1`: more than 350 °C; `CC(=O)c1ccc(NS(C)(=O)=O)c(C(=O)c2ccc(F)cc2F)c1`: 114 to 117 °C. The same measure for `Cc1cc(C)c2c(c1O)C(NS(C)(=O)=O)CC2` (centres undefined): 114 to 116 °C; for `CCOC(=O)c1c(CCO)nc2cc(OC)c(OC)cc2c1-c1ccc(OC)c(OC)c1`: 150 to 151 °C. `CC(C)C[C@H](NC(=O)[C@H](CS)C(F)(F)F)c1nnn[nH]1`: the melting point is 183 to 184 °C. Next, `COC(=O)COc1ccc(NC(=O)/C=C/c2ccc(C#N)cc2)cc1`: 197 °C; `CCCc1nc2c(N)nc(C)c(C)c2n1CCCCS(=O)(=O)N(C)C`: 127 to 128 °C. The same measure for `COc1ccc(S(=O)(=O)n2c(=O)n(-c3cccc(Cl)c3)c3cc(Cl)ccc32)c(OC)c1`: 173 °C; for `Oc1ccc(-c2ccc3c(Cl)c(O)ccc3n2)cc1`: 215 to 216 °C; for `O=C1OC(=O)C2CC(=C(F)F)CC12` (centres undefined): 140 to 145 °C. Take `CCCc1nc2c(N)nc3cc(Oc4ccc([N+](=O)[O-])cc4)ccc3c2n1CC(C)C`: the melting point was 209 to 211 °C. The compound `O=C(O)C1=Cc2cc(Cl)cc(C#Cc3ccc(Cl)cc3)c2OC1C(F)(F)F` (centres undefined) yielded a melting point of 210 to 211 °C. For the compound `CN(C)CCNc1ccc(NCCN(C)C)c2c1C(=O)c1ccc(O)c(O)c1C2=O`, the melting point was in the range of 133 to 135 °C. Next, `COc1ccc(C(=O)Nc2ccc3ccc(CO)nc3n2)cc1`: 212 °C; `COc1ccccc1NC(=O)C(C)(C)CCCOc1cc(C)ccc1C`: 47 to 48 °C. Next, `CCOC(=O)C(=CNc1ncnc2ccc(N3CCN(C)CC3)cc12)C(=O)OCC`: 154 to 159 °C; `O=[N+]([O-])c1cc(O)ccc1F`: 86 to 87 °C.

On to `Cc1c(C)c2c(c(C)c1O)CC[C@](C)(C(=O)N[C@H]1CCOC1=O)O2`, for which the melting point lay in the range of 195 to 196 °C.

As for `O=c1cc(S)sc2ccoc12`, the melting point was more than 245 °C. The same measure for `CC(=O)C(=Cc1ccccc1)c1ccncc1`: 101 to 103 °C.

The values above are taken from a melting point compilation (Tetko et al.; mined from patent text by program, amines drawn as free bases though some values may be those of a salt).
